Type in all cases: in vivo
One experiment has as its system Loblolly pine (P. taeda). Nature of the experiment: Pinus taeda seed pot test, soil sprayed with indaziflam composition. The settings on record: Esplanade 200SC soil spray; for root weight: untreated root approx. 0.06 grams; for shoot weight: untreated shoot approx. 0.19 grams. As for the experimental part:
Loblolly pine (P. taeda) seeds were soaked in water for 24 hours and then placed in cold storage in a punctured bag for four weeks.
(§1) 20 seeds were placed in pots on soil surface and topdressed with one cup of sandy loam soil, about ⅛″ to ¼″ deep. The pots were irrigated and allowed to settle for 24 hours.
(§2) The soil was sprayed with a commercially available composition comprising indaziflam (commercial name Esplanade 200SC) using a single nozzle with a compressed CO2 backpack set at 32 psi for 25 gallons per acre. Overhead irrigation was set for twice daily.

Experiment [1] deals with Shortleaf pine (P. echinata). As to the kind of experiment: Pinus echinata seed pot test, soil sprayed with indaziflam composition. The settings on record: soil spray; for root weight: untreated root approx. 0.05 grams; for shoot weight: untreated shoot approx. 0.10 grams. As for the experimental part:
Shortleaf pine (P. echinata) seeds were soaked in water for 24 hours and then placed in cold storage in a punctured bag for four weeks.
as §1
The soil was sprayed with a commercially available composition comprising indaziflam (commercial name […]) using a single nozzle with a compressed CO2 backpack set at 32 psi for 25 gallons per acre. Overhead irrigation was set for twice daily.

Experiment [2] deals with Virginia pine (P. virginiana). Nature of the experiment: Pinus virginiana seed pot test, soil sprayed with indaziflam composition. The settings on record: Esplanade 200SC soil spray; for root weight: untreated root approx. 0.05 grams; for shoot weight: untreated shoot approx. 0.11 grams. As for the experimental part: Virginia pine (P. virginiana) seeds were soaked in water for 24 hours and then placed in cold storage in a punctured bag for four weeks.
as §1, §2

On to `Cc1ccc2c(c1)[C@H](Nc1nc(N)nc(C(C)F)n1)[C@@H](C)C2` (mixture of isomers) [indaziflam, N2[(1R,2S)-2,3-dihydro-2,6-dimethyl-1H-inden-1-yl]-6-[(1RS)-1-fluoroethyl]-1,3,5-triazine-2,4-diamine], for which the root weight result in the experiment on Loblolly pine (P. taeda) (50 g indaziflam per hectare) is “approximately 0.15 grams”; in the experiment on Loblolly pine (P. taeda) (71.4 g indaziflam per hectare) it was “approximately 0.25 grams”; with Loblolly pine (P. taeda) (100 g indaziflam per hectare), “approximately 0.14 grams”; in experiment [1] (50 g indaziflam per hectare), “approximately 0.13 grams”; in experiment [1] (71.4 g indaziflam per hectare), “approximately 0.27 grams”; in experiment [1] (100 g indaziflam per hectare), “approximately 0.22 grams”. In addition, the results for the root weight entry in experiment [2] (50 g indaziflam per hectare), in experiment [2] (71.4 g indaziflam per hectare) and in experiment [2] (100 g indaziflam per hectare) were “approximately 0.14 grams”, “approximately 0.27 grams” and “approximately 0.22 grams”, respectively. For the same compound, the shoot weight result in the experiment with Loblolly pine (P. taeda) (50 g indaziflam per hectare) was “approximately 0.30 grams”; in the experiment on Loblolly pine (P. taeda) (71.4 g indaziflam per hectare), “approximately 0.50 grams”; in the experiment on Loblolly pine (P. taeda) (100 g indaziflam per hectare), “approximately 0.22 grams”; in experiment [1] (50 g indaziflam per hectare) it was “approximately 0.34 grams”; in experiment [1] (71.4 g indaziflam per hectare) it was “approximately 0.40 grams”; in experiment [1] (100 g indaziflam per hectare), “approximately 0.24 grams”. The shoot weight entry was “approximately 0.23 grams” in experiment [2] (50 g indaziflam per hectare) and “approximately 0.41 grams” in experiment [2] (71.4 g indaziflam per hectare).

(Values after patent US20180206499A1, “METHOD OF IMPROVING PLANT HEALTH AND ROOTING OF PLANTS” (Bayer CropScience LP, priority 2017, published 2018).)
